These results are taken from patent publication US12509474B2, “Inhibitors of complement factors and uses thereof” (Annexon, Inc., priority 2020, dated 2025).

Where a name gives a salt, the structure may show the parent alone.

This assay deals with T1, human C1s protein (Homo sapiens, UniProt P09871).
T1 construct: A104
T1 sequence (P09871 16-688): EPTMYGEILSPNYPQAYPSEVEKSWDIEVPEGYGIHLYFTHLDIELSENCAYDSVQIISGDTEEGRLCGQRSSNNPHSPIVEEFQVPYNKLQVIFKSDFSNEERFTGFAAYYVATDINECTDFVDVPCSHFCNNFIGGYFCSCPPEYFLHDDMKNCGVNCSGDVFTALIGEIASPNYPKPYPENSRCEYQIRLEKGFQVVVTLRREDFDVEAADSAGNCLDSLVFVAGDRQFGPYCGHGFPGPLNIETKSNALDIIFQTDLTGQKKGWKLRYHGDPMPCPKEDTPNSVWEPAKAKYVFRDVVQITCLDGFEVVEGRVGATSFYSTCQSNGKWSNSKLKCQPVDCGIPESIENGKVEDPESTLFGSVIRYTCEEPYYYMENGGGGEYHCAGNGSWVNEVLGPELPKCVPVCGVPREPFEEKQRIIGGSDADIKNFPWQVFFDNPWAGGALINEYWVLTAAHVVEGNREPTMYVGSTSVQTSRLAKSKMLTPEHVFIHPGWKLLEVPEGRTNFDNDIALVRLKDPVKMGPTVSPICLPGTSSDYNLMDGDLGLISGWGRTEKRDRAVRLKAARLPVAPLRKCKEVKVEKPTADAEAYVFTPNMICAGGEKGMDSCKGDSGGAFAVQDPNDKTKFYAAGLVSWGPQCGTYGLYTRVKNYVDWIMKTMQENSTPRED
The experiment in a line: C1s enzymatic assay (hydrolysis of YLGR-Rh110-dPro). The assay is classed as biochemical. The settings on record: substrate YLGR-Rh110-dPro 20 μM, 15 min pre-incubation, 60 min RT, fluorescence, read-out: hC1s pIC50 (converted). As to the method:
Compound Testing in the C1s Enzymatic Assay
The enzyme cleaves the substrate with the release of Rh110 which is highly fluorescent. C1s inhibitors prevent the hydrolysis of the substrate thus resulting in a decrease of the signal.
On the day of the experiment 0.1 mg/mL BSA (Sigma, B4287) is added fresh to the buffer. The test item stock solutions are serially diluted 1:3 or 1:4 or 1:5 with DMSO, 11-point curves, in a 384-well compound plate. Nafamostat concentration curve is always included in the assay plate as a reference control.
The high controls are prepared dispensing in 0.25 μL DMSO in column 23, rows AH or AP and low controls with 0.25 μL of 0.1 M Nafamostat. […] The YLGR-Rh110-dPro substrate is prepared as 2× of the final assay concentration of 20 μM. 1/well of 2× enzyme solution is dispensed and pre-incubated for 15 min with the compounds. The enzymatic reaction is then started with 5 μL/well of the 2× substrate solution.
With `Cc1ccc(B(O)O)cc1-c1ccc2c(N)nnc(C)c2c1` [Example 10, [3-(1-amino-4-methylphthalazin-6-yl)-4-methylphenyl]boronic Acid Formic Acid Salt], the IC50 is 6.92 nM. The figure for `Nc1nnc(C2CC2)c2cc(-c3cccc(B(O)O)c3)ccc12` [Example 11, [3-(1-amino-4-cyclopropylphthalazin-6-yl)phenyl]boronic Acid Formic Acid Salt] is 214 nM; for `CCc1ccc(B(O)O)cc1-c1ccc2c(N)nnc(C)c2c1` [Example 12, [3-(1-amino-4-methylphthalazin-6-yl)-4-ethylphenyl]boronic Acid Formic Acid Salt] it is 8.13 nM. The figure for `Cc1cc2cc(-c3cccc(B(O)O)c3)ccc2c(N)n1` [Example 13, [3-(1-amino-3-methylisoquinolin-6-yl)phenyl]boronic Acid; Trifluoroacetic Acid Salt] is 37.2 nM; for `Cc1nnc(N)c2ccc(-c3ccc4c(c3)B(O)OC4)cc12` [Example 14, 6-(1-hydroxy-3H-2,1-benzoxaborol-6-yl)-4-methylphthalazin-1-amine Formic Acid Salt] it is 14.1 nM; for `Cc1nnc(N)c2ccc(-c3cc(B(O)O)ccc3OC(F)(F)F)cc12` [Example 15, [3-(1-amino-4-methylphthalazin-6-yl)-4-(trifluoromethoxy)phenyl]boronic Acid] it is 1.7 nM.

As for `COCCOCCOCCOCCOCCOCCOc1ccc(B(O)O)cc1-c1ccc2c(N)nnc(C)c2c1` [Example 16, [3-(1-amino-4-methylphthalazin-6-yl)-4-[2-[2-[2-[2-[2-(2-methoxyethoxy)ethoxy]ethoxy]ethoxy]ethoxy]ethoxy]phenyl]boronic Acid], the IC50 is 4.79 nM. `Cc1nnc(N)c2ccc(-c3cncc(B(O)O)c3)cc12` [Example 17, [5-(1-amino-4-methylphthalazin-6-yl)pyridin-3-yl]boronic Acid]: the IC50 was 1.74 nM. Regarding `Nc1nncc2cc(-c3cc(B(O)O)ccc3NC(=O)c3ccccc3Cl)ccc12` [Example 18, [3-(1-aminophthalazin-6-yl)-4-[(2-chlorobenzoyl)amino]phenyl]boronic Acid Formic Acid Salt], the IC50 is 5.5 nM. `Cc1nnc(N)c2ccc(-c3cc(B(O)O)ccc3F)cc12` [Example 19, [3-(1-amino-4-methylphthalazin-6-yl)-4-fluorophenyl]boronic acid formic acid salt]: the IC50 is 1.35 nM. As to `COc1cc2c(cc1-c1ccc3c(N)nnc(C)c3c1)B(O)OC2` [Example 20, 6-(1-hydroxy-5-methoxy-3H-2,1-benzoxaborol-6-yl)-4-methylphthalazin-1-amine], the IC50 was 10 nM. Consider `COc1ccc(B(O)O)cc1-c1ccc2c(N)nc(C)cc2c1` [Example 22, [3-(1-amino-3-methylisoquinolin-6-yl)-4-methoxyphenyl]boronic Acid], for which the IC50 was 269 nM.

`Cc1nnc(N)c2ccc(-n3cc(B(O)O)cn3)cc12` [Example 23, [1-(1-amino-4-methylphthalazin-6-yl)pyrazol-4-yl]boronic Acid]: the IC50 was 363 nM. Turning to `COc1cc(F)c(B(O)O)cc1-c1ccc2c(N)nnc(C)c2c1` [Example 25, [5-(1-amino-4-methylphthalazin-6-yl)-2-fluoro-4-methoxyphenyl]boronic Acid], the IC50 was 1.7 nM.

Regarding `Cc1nnc(N)c2ccc(-c3ccc4c(c3)B(O)OCC4)cc12` [Example 26, Formic Acid Salt], the IC50 was 2.19 nM. The figure for `COc1cc(C)c(B(O)O)cc1-c1ccc2c(N)nnc(C)c2c1` [Example 28, [5-(1-amino-4-methylphthalazin-6-yl)-4-methoxy-2-methylphenyl]boronic Acid Formic Acid Salt] is 1.78 nM.

In the case of `Cc1nnc(N)c2ccc(-c3cc(B(O)O)ccc3C#N)cc12` [Example 29, [3-(1-amino-4-methylphthalazin-6-yl)-4-cyanophenyl]boronic Acid], the IC50 is 1.91 nM. For the compound `COc1ncc(B(O)O)cc1-c1ccc2c(N)nnc(C)c2c1` [Example 30, [5-(1-amino-4-methylphthalazin-6-yl)-6-methoxypyridin-3-yl]boronic Acid], the IC50 was 2.04 nM.

`COc1ccc(B(O)O)cc1-c1cc(F)c2c(N)cnnc2c1` [Example 31, [3-(4-amino-5-fluorocinnoline-7-yl)-4-methoxyphenyl]boronic Acid]: the IC50 was 15.1 nM. The figure for `COc1cc2c(cc1-c1ccc3c(N)nnc(C)c3c1)B(O)OCC2` [Example 32, 6-(1-hydroxy-6-methoxy-3,4-dihydro-2,1-benzoxazonin-7-yl)-4-methylphthalazin-1-amine Formic Acid Salt] is 4.68 nM. Consider `COc1ccc(B(O)O)c(F)c1-c1ccc2c(N)nnc(C)c2c1` [Example 34, [3-(1-amino-4-methylphthalazin-6-yl)-2-fluoro-4-methoxyphenyl]boronic Acid Formic Acid Salt], for which the IC50 is 1.02 nM. Regarding `COc1cc(C(F)F)c(B(O)O)cc1-c1ccc2c(N)nnc(C)c2c1` [Example 35, [5-(1-amino-4-methylphthalazin-6-yl)-2-(difluoromethyl)-4-methoxyphenyl]boronic Acid], the IC50 is 2.69 nM. For `Cc1nnc(N)c2ccc(-c3cc(B(O)O)cc(F)c3C#N)cc12` [Example 36, [3-(1-amino-4-methylphthalazin-6-yl)-4-cyano-5-fluorophenyl]boronic Acid Formic Acid Salt], the IC50 was 1.91 nM. For the compound `COc1cc(C(F)(F)F)c(B(O)O)cc1-c1ccc2c(N)nnc(C)c2c1` [Example 37, [5-(1-amino-4-methylphthalazin-6-yl)-4-methoxy-2-(trifluoromethyl)phenyl]boronic Acid Formic Acid Salt], the IC50 was 1.58 nM.

As for `Cc1nnc(N)c2ccc(-c3cc(B(O)O)cc(C(F)(F)F)c3)cc12` [Example 38], the IC50 was 1.05 nM. For `Cc1nnc(N)c2ccc(-c3cc(B(O)O)ccc3C(F)(F)F)cc12` [Example 39, [3-(1-amino-4-methylphthalazin-6-yl)-4-(trifluoromethyl)phenyl]boronic Acid Formic Acid Salt], the IC50 was 1.32 nM. The figure for `Cc1nnc(N)c2ccc(-c3cc(B(O)O)cc(P(C)(C)=O)c3)cc12` [Example 40, [3-(1-amino-4-methylphthalazin-6-yl)-5-dimethylphosphorylphenyl]boronic Acid Formic Acid Salt] is 1.02 nM; for `Cc1cc(C#N)c(-c2ccc3c(N)nnc(C)c3c2)cc1B(O)O` [Example 41, [5-(1-amino-4-methylphthalazin-6-yl)-4-cyano-2-methylphenyl]boronic Acid] it is 1.2 nM. As to `COc1c(C)cc(B(O)O)cc1-c1ccc2c(N)nnc(C)c2c1` [Example 42, [3-(1-amino-4-methylphthalazin-6-yl)-4-methoxy-5-methylphenyl]boronic Acid Formic Acid Salt], the IC50 was 1.38 nM. The figure for `COc1cc(C2CC2)c(B(O)O)cc1-c1ccc2c(N)nnc(C)c2c1` [Example 43, [5-(1-amino-4-methylphthalazin-6-yl)-2-cyclopropyl-4-methoxyphenyl]boronic Acid] is 1 nM; for `COc1cc(OC(F)(F)F)c(B(O)O)cc1-c1ccc2c(N)nnc(C)c2c1` [Example 44, [5-(1-amino-4-methylphthalazin-6-yl)-4-methoxy-2-(trifluoromethoxy)phenyl]boronic Acid] it is 0.813 nM; for `COc1c(C)cc(-c2ccc3c(N)nnc(C)c3c2)cc1B(O)O` [Example 45, [5-(1-amino-4-methylphthalazin-6-yl)-2-methoxy-3-methylphenyl]boronic Acid] it is 0.562 nM. With `COc1cc2c(cc1-c1ccc3c(N)cnnc3c1)B(O)OCC2` [Example 46, 7-(1-hydroxy-6-methoxy-3,4-dihydro-2,1-benzoxazonin-7-yl)cinnolin-4-amine Trifluoroacetic Acid Salt], the IC50 was 7.41 nM. `Cc1nnc(N)c2ccc(-c3cc(P(C)(C)=O)cc(B(O)O)c3F)cc12` [Example 47, [3-(1-amino-4-methylphthalazin-6-yl)-5-dimethylphosphoryl-2-fluorophenyl]boronic Acid Formic Acid Salt]: the IC50 was 75.9 nM. As to `COc1ccc(B(O)O)c(F)c1-c1ccc2c(N)cnnc2c1` [Example 48, [3-(4-aminocinnolin-7-yl)-2-fluoro-4-methoxyphenyl]boronic Acid], the IC50 was 4.07 nM.
